Experimental data as given in BindingDB's records for doi:10.1111/cbdd.12050 (Epizyme, 2012).

Target: Histone-lysine N-methyltransferase, H3 lysine-79 specific (Homo sapiens, UniProt Q8TEK3)
Assay: Enzyme Assay
Procedure: Assay of DOT1L enzymatic activity were performed under balanced conditions using a radiometric assay.

Histone-lysine N-methyltransferase, H3 lysine-79 specific, sequence (Q8TEK3 whole entry): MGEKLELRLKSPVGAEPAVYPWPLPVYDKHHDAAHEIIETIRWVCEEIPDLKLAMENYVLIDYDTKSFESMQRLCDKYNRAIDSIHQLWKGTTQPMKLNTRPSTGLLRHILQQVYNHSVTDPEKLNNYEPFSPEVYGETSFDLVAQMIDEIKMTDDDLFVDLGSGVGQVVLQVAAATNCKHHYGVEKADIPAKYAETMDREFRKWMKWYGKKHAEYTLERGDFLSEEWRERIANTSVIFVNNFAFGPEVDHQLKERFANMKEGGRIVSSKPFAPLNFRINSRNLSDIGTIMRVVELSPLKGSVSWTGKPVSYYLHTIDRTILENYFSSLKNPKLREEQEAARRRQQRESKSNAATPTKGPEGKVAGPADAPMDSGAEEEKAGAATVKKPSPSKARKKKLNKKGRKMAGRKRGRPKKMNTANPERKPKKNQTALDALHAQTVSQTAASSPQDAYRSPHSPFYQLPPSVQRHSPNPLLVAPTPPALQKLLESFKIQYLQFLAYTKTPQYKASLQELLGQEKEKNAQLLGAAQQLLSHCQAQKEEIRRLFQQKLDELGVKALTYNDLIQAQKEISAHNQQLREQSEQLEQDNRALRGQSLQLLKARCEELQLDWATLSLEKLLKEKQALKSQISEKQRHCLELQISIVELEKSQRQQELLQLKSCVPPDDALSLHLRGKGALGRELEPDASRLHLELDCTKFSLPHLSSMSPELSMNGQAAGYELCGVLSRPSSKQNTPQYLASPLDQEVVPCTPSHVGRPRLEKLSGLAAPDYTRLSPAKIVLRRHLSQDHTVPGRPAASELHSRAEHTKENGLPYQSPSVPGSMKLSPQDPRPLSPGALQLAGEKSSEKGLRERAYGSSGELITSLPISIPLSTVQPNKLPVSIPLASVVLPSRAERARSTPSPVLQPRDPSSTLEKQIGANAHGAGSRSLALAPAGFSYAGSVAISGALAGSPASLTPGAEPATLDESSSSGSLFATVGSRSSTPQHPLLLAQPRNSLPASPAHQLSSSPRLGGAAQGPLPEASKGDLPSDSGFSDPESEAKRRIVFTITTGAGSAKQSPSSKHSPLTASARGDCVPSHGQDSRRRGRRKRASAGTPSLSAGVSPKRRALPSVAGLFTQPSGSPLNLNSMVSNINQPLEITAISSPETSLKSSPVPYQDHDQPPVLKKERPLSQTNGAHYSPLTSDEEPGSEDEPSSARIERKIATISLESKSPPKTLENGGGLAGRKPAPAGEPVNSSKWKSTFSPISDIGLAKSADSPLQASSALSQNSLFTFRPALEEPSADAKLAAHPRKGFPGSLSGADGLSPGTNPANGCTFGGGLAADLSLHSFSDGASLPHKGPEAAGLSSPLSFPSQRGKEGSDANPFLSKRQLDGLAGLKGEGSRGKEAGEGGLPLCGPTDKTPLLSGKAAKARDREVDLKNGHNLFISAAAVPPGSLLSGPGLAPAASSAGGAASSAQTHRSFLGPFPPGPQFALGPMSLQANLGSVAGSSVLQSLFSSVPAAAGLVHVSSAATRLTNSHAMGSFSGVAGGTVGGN

Kd: 167 nM | Ki: 845 nM
SMILES: CN(CCNC(=O)Nc1ccc(C(C)(C)C)cc1)CC1OC(n2cnc3c(N)ncnc32)[C@H](O)[C@@H]1O (some centres not stated) [EPZ003647]
